Patent US9115127B2 (AMGEN INC., priority 2010, dated 2015)

Each compound was assayed against T1, wild-type human ALK (cytoplasmic domain, amino acids 1058-1620, N-terminal GST fusion) (Homo sapiens, UniProt Q9UM73) (assay: ALK Inhibition in Enzyme Assay (Lance TR-FRET kinase assay)).
T1 construct: The cytoplasmic domain (amino acids 1058-1620) of wild-type human ALK; GST (N); made in house; host or cells: SF9 insect cells
Type: biochemical
Procedure, shortened: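 Purified enzyme phosphorylated a biotinylated peptide substrate for 90 minutes at room temperature. Reactions were stopped with 20 mM EDTA in 50 mM Tris (pH 7.5), 100 mM NaCl, 0.05% BSA, 0.1% Tween-20. Phosphopeptide was detected by TR-FRET with SA-APC and Eu-W1024 anti-phosphotyrosine antibody PT66, excitation 320 nm.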

T1 sequence (Q9UM73 1058-1620): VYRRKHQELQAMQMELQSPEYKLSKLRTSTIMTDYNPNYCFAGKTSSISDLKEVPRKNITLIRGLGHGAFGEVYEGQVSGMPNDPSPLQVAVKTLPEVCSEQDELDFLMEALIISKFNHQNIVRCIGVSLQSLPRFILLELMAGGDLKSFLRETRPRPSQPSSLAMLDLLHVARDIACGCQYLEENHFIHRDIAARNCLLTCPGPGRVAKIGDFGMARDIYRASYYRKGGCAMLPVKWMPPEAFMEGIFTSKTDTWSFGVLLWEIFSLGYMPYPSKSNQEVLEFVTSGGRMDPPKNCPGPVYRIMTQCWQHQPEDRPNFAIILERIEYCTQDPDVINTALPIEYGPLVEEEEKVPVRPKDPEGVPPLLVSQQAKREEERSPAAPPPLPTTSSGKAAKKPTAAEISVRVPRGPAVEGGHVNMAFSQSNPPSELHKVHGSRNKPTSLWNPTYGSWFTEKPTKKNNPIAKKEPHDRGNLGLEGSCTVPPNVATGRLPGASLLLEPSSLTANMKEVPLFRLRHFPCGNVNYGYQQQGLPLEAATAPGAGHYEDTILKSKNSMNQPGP

Structure (SMILES)	IC50
CC(C)NC(=O)[C@H]1CC[C@@H](n2/c(=N/C(=O)c3ccc(S(C)(=O)=O)cc3)[nH]c3cnc(OCCN4CCCCC4)cc32)CC1 [Example 120, (E)-N-(1-(cis-4-(Isopropylcarbamoyl)cyclohexyl)-6-(2-(piperidin-1-yl)ethoxy)-1H-imidazo[4,5-c]pyridin-2(3H)-ylidene)-4-(methylsulfonyl)benzamide]	100 to 1000 nM
CC(C)NC(=O)[C@H]1CC[C@@H](n2/c(=N/C(=O)c3cccc(OC(F)(F)F)c3)[nH]c3cnc(OCCN4CCCCC4)cc32)CC1 [Example 121, (E)-N-(1-(cis-4-(Isopropylcarbamoyl)cyclohexyl)-6-(2-(piperidin-1-yl)ethoxy)-1H-imidazo[4,5-c]pyridin-2(3H)-ylidene)-3-(trifluoromethoxy)benzamide]	50 to 100 nM
CC(C)NC(=O)[C@H]1CC[C@@H](n2/c(=N/C(=O)c3ccc(C(N)=O)cc3)[nH]c3cnc(OCCN4CCCCC4)cc32)CC1 [Example 122, (E)-N-1-(1-(cis-4-(Isopropylcarbamoyl)cyclohexyl)-6-(2-(piperidin-1-yl)ethoxy)-1H-imidazo[4,5-c]pyridin-2(3H)-ylidene)terephthalamide]	100 to 1000 nM
N#Cc1ccc(C(=O)/N=c2\[nH]c3cnc(OCCN4CCCCC4)cc3n2[C@H]2CC[C@@H](C(=O)N3CCNCC3)CC2)cc1 [Example 123, (E)-4-Cyano-N-(1-(cis-4-(piperazine-1-carbonyl)cyclohexyl)-6-(2-(piperidin-1-yl)ethoxy)-1H-imidazo[4,5-c]pyridin-2(3H)-ylidene)benzamide]	< 50 nM
CC(C)NC(=O)[C@H]1CC[C@@H](n2/c(=N/C(=O)c3cccc(F)c3)[nH]c3cnc(N4CCC(C(C)(C)O)CC4)cc32)CC1 [Example 125, (E)-3-Fluoro-N-(6-(4-(2-hydroxypropan-2-yl)piperidin-1-yl)-1-(cis-4-(isopropylcarbamoyl)cyclohexyl)-1H-imidazo[4,5-c]pyridin-2(3H)-ylidene)benzamide]	< 50 nM
CC(C)NC(=O)[C@H]1CC[C@@H](n2/c(=N/C(=O)c3ccc(C#N)cc3)[nH]c3cnc(OCCO)cc32)CC1 [Example 126, (E)-4-Cyano-N-(6-(2-hydroxyethoxy)-1-(cis-4-(isopropylcarbamoyl)cyclohexyl)-1H-imidazo[4,5-c]pyridin-2(3H)-ylidene)benzamide]	< 50 nM
CC(C)NC(=O)[C@H]1CC[C@@H](n2/c(=N/C(=O)c3ccc(F)cc3)[nH]c3cnc(OCCO)cc32)CC1 [Example 127, (E)-4-Fluoro-N-(6-(2-hydroxyethoxy)-1-(cis-4-(isopropylcarbamoyl)cyclohexyl)-1H-imidazo[4,5-c]pyridin-2(3H)-ylidene)benzamide]	< 50 nM
CC(C)NC(=O)[C@H]1CC[C@@H](n2/c(=N/C(=O)c3ccc(F)cc3)[nH]c3cnc(OCCN4CCC(C(C)(C)O)CC4)cc32)CC1 [Example 128, (E)-4-Fluoro-N-(6-(2-(4-(2-hydroxypropan-2-yl)piperidin-1-yl)ethoxy)-1-(cis-4-(isopropylcarbamoyl)cyclohexyl)-1H-imidazo[4,5-c]pyridin-2(3H)-ylidene)benzamide]	< 50 nM
CC(C)NC(=O)[C@H]1CC[C@@H](n2/c(=N/C(=O)c3ccc(C#N)cc3)[nH]c3cnc(OCCN4CCC(C(C)(C)O)CC4)cc32)CC1 [Example 129, (E)-4-Cyano-N-(6-(2-(4-(2-hydroxypropan-2-yl)piperidin-1-yl)ethoxy)-1-(cis-4-(isopropylcarbamoyl)cyclohexyl)-1H-imidazo[4,5-c]pyridin-2(3H)-ylidene)benzamide]	< 50 nM
C=CCNS(=O)(=O)c1cccc(C(=O)/N=c2\[nH]c3cnc(OCCN4CCCCC4)cc3n2[C@H]2CC[C@H](C(=O)NC(C)C)CC2)c1 [Example 131, (E)-3-(N-Allylsulfamoyl)-N-(1-(trans-4-(isopropylcarbamoyl)cyclohexyl)-6-(2-(piperidin-1-yl)ethoxy)-1H-imidazo[4,5-c]pyridin-2(3H)-ylidene)benzamide]	100 to 1000 nM
CC(C)NC(=O)[C@H]1CC[C@@H](n2/c(=N/C(=O)NC3CCCCC3)[nH]c3cnc(OCCN4CCCCC4)cc32)CC1 [Example 132, cis-4-((E)-2-(Cyclohexylcarbamoylimino)-6-(2-(piperidin-1-yl)ethoxy)-2,3-dihydro-1H-imidazo[4,5-c]pyridin-1-yl)-N-isopropylcyclohexanecarboxamide]	100 to 1000 nM
CC(C)NC(=O)[C@H]1CC[C@@H](n2/c(=N/C(=O)N3CCOCC3)[nH]c3cnc(OCCN4CCCCC4)cc32)CC1 [Example 133, (E)-N-(1-(cis-4-(Isopropylcarbamoyl)cyclohexyl)-6-(2-(piperidin-1-yl)ethoxy)-1H-imidazo[4,5-c]pyridin-2(3H)-ylidene)morpholine-4-carboxamide]	100 to 1000 nM
CC(C)NC(=O)[C@H]1CC[C@@H](n2/c(=N/C(=O)N3CCCC3)[nH]c3cnc(OCCN4CCCCC4)cc32)CC1 [Example 134, (E)-N-(1-(cis-4-(Isopropylcarbamoyl)cyclohexyl)-6-(2-(piperidin-1-yl)ethoxy)-1H-imidazo[4,5-c]pyridin-2(3H)-ylidene)pyrrolidine-1-carboxamide]	50 to 100 nM
NC(=O)[C@H]1CC[C@@H](n2/c(=N/C(=O)c3ccc(F)cc3)[nH]c3cnc(OCCN4CCCCC4)cc32)CC1 [Example 135, (E)-N-(1-(cis-4-Carbamoylcyclohexyl)-6-(2-(piperidin-1-yl)ethoxy)-1H-imidazo[4,5-c]pyridin-2(3H)-ylidene)-4-fluorobenzamide]	< 50 nM
CC(C)NC(=O)[C@H]1CC[C@@H](n2c(N)nc3ccc(CN4CCC(C(C)(C)O)CC4)cc32)CC1 [Example 136, cis-4-(2-Amino-6-((4-(2-hydroxypropan-2-yl)piperidin-1-yl)methyl)-1H-benzo[d]imidazol-1-yl)-N-isopropylcyclohexanecarboxamide]	1000 to 5000 nM
CC(C)NC(=O)[C@H]1CC[C@@H](n2/c(=N/C(=O)c3cccc(C(F)(F)F)c3)[nH]c3ccc(CN4CCC(C(C)(C)O)CC4)cc32)CC1 [Example 147, (E)-N-(6-((4-(2-Hydroxypropan-2-yl)piperidin-1-yl)methyl)-1-(cis-4-(isopropylcarbamoyl)cyclohexyl)-1H-benzo[d]imidazol-2(3H)-ylidene)-3-(trifluoromethyl)benzamide]	< 50 nM
CC(C)NC(=O)[C@H]1CC[C@@H](n2/c(=N/C(=O)c3ccc(F)c(C(F)(F)F)c3)[nH]c3ccc(CN4CCC(C(C)(C)O)CC4)cc32)CC1 [Example 148, (E)-4-Fluoro-N-(6-((4-(2-hydroxypropan-2-yl)piperidin-1-yl)methyl)-1-(cis-4-(isopropylcarbamoyl)cyclohexyl)-1H-benzo[d]imidazol-2(3H)-ylidene)-3-(trifluoromethyl)benzamide]	< 50 nM
COc1ccc(C(=O)/N=c2\[nH]c3ccc(CN4CCC(C(C)(C)O)CC4)cc3n2[C@H]2CC[C@@H](C(=O)NC(C)C)CC2)cc1 [Example 151, (E)-N-(6-((4-(2-Hydroxypropan-2-yl)piperidin-1-yl)methyl)-1-(cis-4-(isopropylcarbamoyl)cyclohexyl)-1H-benzo[d]imidazol-2(3H)-ylidene)-4-methoxybenzamide]	< 50 nM
COc1ccc(COc2ccc3nc(NC(=O)c4ccc(F)cc4)n([C@H]4CC[C@@H](C(=O)NC(C)C)CC4)c3c2)cc1 [Example 153, 4-Fluoro-N-(6-((4-methoxybenzyl)oxy)-1-(cis-4-((1-methylethyl)carbamoyl)cyclohexyl)-1H-benzimidazol-2-yl)benzamide]	< 50 nM
CC(C)NC(=O)[C@H]1CC[C@@H](n2/c(=N/C(=O)c3ccc(F)cc3)[nH]c3ccc(O)cc32)CC1 [Example 154, 4-Fluoro-N-(6-hydroxy-1-(cis-4-(isopropylcarbamoyl)cyclohexyl)-1H-benzo[d]imidazol-2-yl)benzamide]	< 50 nM
CC(C)NC(=O)[C@H]1CC[C@@H](n2/c(=N/C(=O)c3ccc(F)cc3)[nH]c3ccc(OCCN4CCCCC4)cc32)CC1 [Example 155, (E)-4-Fluoro-N-(1-(cis-4-(isopropylcarbamoyl)cyclohexyl)-6-(2-(piperidin-1-yl)ethoxy)-1H-benzo[d]imidazol-2(3H)-ylidene)benzamide]	< 50 nM
CC(C)NC(=O)[C@H]1CC[C@@H](n2/c(=N/C(=O)c3ccc(F)cc3)[nH]c3cnccc32)CC1 [Example 156, (E)-4-Fluoro-N-(1-(cis-4-(isopropylcarbamoyl)cyclohexyl)-1H-imidazo[4,5-c]pyridin-2(3H)-ylidene)benzamide]	< 50 nM
COc1cc2c(cn1)[nH]/c(=N\C(=O)c1ccc(F)cc1)n2[C@H]1CC[C@@H](C(=O)NC(C)C)CC1 [Example 157, (E)-4-Fluoro-N-(1-(cis-4-(isopropylcarbamoyl)cyclohexyl)-6-methoxy-1H-imidazo[4,5-c]pyridin-2(3H)-ylidene)benzamide]	< 50 nM
COCCOc1cc2c(cn1)[nH]/c(=N\C(=O)c1ccc(F)cc1)n2[C@H]1CC[C@@H](C(=O)NC(C)C)CC1 [Example 159, (E)-4-Fluoro-N-(1-(cis-4-(isopropylcarbamoyl)cyclohexyl)-6-(2-methoxyethoxy)-1H-imidazo[4,5-c]pyridin-2(3H)-ylidene)benzamide]	< 50 nM
CC(C)NC(=O)[C@H]1CC[C@@H](n2/c(=N/C(=O)c3ccc(F)cc3)[nH]c3cnc(Cl)cc32)CC1 [Example 160, (E)-N-(6-Chloro-1-(cis-4-(isopropylcarbamoyl)cyclohexyl)-1H-imidazo[4,5-c]pyridin-2(3H)-ylidene)-4-fluorobenzamide]	< 50 nM
CC(C)NC(=O)[C@H]1CC[C@@H](n2/c(=N/C(=O)c3ccc(F)cc3)[nH]c3ccc(OCCN4CCOCC4)cc32)CC1 [Example 161, (E)-4-Fluoro-N-(1-(cis-4-(isopropylcarbamoyl)cyclohexyl)-6-(2-morpholinoethoxy)-1H-benzo[d]imidazol-2(3H)-ylidene)benzamide]	< 50 nM
